Reference: publication PMC11249646, “Small-Molecule Disruptors of the Interaction between Calcium- and Integrin-Binding Protein 1 and Integrin αIIbβ3 as Novel Antiplatelet Agents” (ACS Pharmacology & Translational Science, 2024)

Each compound was assayed against T1, CIB1 and αIIb interaction (CIB1-GST : F-αIIb peptide) (Homo sapiens, UniProt Q99828) (assay: FP assay, 1536-well qHTS format (primary and confirmatory screen)). Conditions: confirmatory screen.
T1 construct: made in house; host or cells: BL-21 plus RIL cells (E. coli)
T1 sequence (Q99828 1-191): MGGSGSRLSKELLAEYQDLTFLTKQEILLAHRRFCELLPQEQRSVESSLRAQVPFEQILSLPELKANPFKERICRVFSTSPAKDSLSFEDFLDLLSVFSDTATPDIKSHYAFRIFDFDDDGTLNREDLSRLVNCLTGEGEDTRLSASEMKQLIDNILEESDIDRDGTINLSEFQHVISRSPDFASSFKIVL
Type: binding

| Compound | Efficacy (%) (confirmatory screen) | CONFIRMATORY SCREEN Efficacy (%) |
| --- | --- | --- |
| NC(=O)c1ccnc2c(O)cccc12.O=C(O)C(F)(F)F [NCGC00183783-01] | -22 |  |
| O=C(O)C(F)(F)F.Oc1cccc2c(-c3nnn[nH]3)ccnc12 [NCGC00183786-01] | -29 |  |
| CN1CCN(c2ccc(-c3cc(O)c4ncccc4c3)cc2)CC1.O=C(O)C(F)(F)F [NCGC00183803-01] |  | -13 |
| CN1CCC(N(Cc2cccs2)c2ccccc2)CC1 [NCGC00183847-01] |  | 0 |
| Cc1ccc2nc3sc(C(=O)NCc4ccco4)cc3cc2c1.O=C(O)C(F)(F)F [NCGC00183968-01] | -34 |  |
| Oc1ccc(-c2nnn[nH]2)c2cccnc12 [NCGC00184885-01] | -40 |  |

Same assay, conditions: confirmatory screen, YES/NO

| Compound | Confirm? (confirmatory screen) |
| --- | --- |
| NC(=O)c1ccnc2c(O)cccc12.O=C(O)C(F)(F)F [NCGC00183783-01] | YES |
| O=C(O)C(F)(F)F.Oc1cccc2c(-c3nnn[nH]3)ccnc12 [NCGC00183786-01] | YES |
| Cc1ccc2nc3sc(C(=O)NCc4ccco4)cc3cc2c1.O=C(O)C(F)(F)F [NCGC00183968-01] | YES |
| Oc1ccc(-c2nnn[nH]2)c2cccnc12 [NCGC00184885-01] | YES |

Same assay, conditions: confirmatory screen, qHTS curve class

| Compound | CONFIRMATORY SCREEN Curve Class |
| --- | --- |
| CN1CCN(c2ccc(-c3cc(O)c4ncccc4c3)cc2)CC1.O=C(O)C(F)(F)F [NCGC00183803-01] | 4 |
| CN1CCC(N(Cc2cccs2)c2ccccc2)CC1 [NCGC00183847-01] | 4 |

Same assay, conditions: confirmatory screen, qHTS curve class; negative sign = inhibitory curve

| Compound | Curve Class (confirmatory screen) |
| --- | --- |
| NC(=O)c1ccnc2c(O)cccc12.O=C(O)C(F)(F)F [NCGC00183783-01] | -2.4 |
| O=C(O)C(F)(F)F.Oc1cccc2c(-c3nnn[nH]3)ccnc12 [NCGC00183786-01] | -1.4 |
| Cc1ccc2nc3sc(C(=O)NCc4ccco4)cc3cc2c1.O=C(O)C(F)(F)F [NCGC00183968-01] | -1.2 |
| Oc1ccc(-c2nnn[nH]2)c2cccnc12 [NCGC00184885-01] | -3 |

Same assay, conditions: confirmatory screen; read-out: IC50 [μM] (confirmatory screen)

| Compound | IC50 [µM] |
| --- | --- |
| NC(=O)c1ccnc2c(O)cccc12.O=C(O)C(F)(F)F [NCGC00183783-01] | 50.1 |
| O=C(O)C(F)(F)F.Oc1cccc2c(-c3nnn[nH]3)ccnc12 [NCGC00183786-01] | 25.1 |
| Cc1ccc2nc3sc(C(=O)NCc4ccco4)cc3cc2c1.O=C(O)C(F)(F)F [NCGC00183968-01] | 15.8 |
| Oc1ccc(-c2nnn[nH]2)c2cccnc12 [NCGC00184885-01] | 79.4 |

Same assay, conditions: qHTS FP screen hits, Table S2; negative = inhibition

| Compound | Efficacy (%) |
| --- | --- |
| CN1CCN(c2ccc(-c3cc(O)c4ncccc4c3)cc2)CC1.O=C(O)C(F)(F)F [NCGC00183803-01] | -51 |

Same assay, conditions: qHTS FP screen hits, Table S2; read-out: IC50

| Compound | IC50 [µM] |
| --- | --- |
| CN1CCN(c2ccc(-c3cc(O)c4ncccc4c3)cc2)CC1.O=C(O)C(F)(F)F [NCGC00183803-01] | 39.8 |

Same assay, conditions: qHTS primary screen hits, Table S2; negative = inhibition

| Compound | Efficacy (%) |
| --- | --- |
| NC(=O)c1ccnc2c(O)cccc12.O=C(O)C(F)(F)F [NCGC00183783-01] | -40 |
| O=C(O)C(F)(F)F.Oc1cccc2c(-c3nnn[nH]3)ccnc12 [NCGC00183786-01] | -27 |
| CN1CCC(N(Cc2cccs2)c2ccccc2)CC1 [NCGC00183847-01] | -43 |
| Cc1ccc2nc3sc(C(=O)NCc4ccco4)cc3cc2c1.O=C(O)C(F)(F)F [NCGC00183968-01] | -24 |
| Oc1ccc(-c2nnn[nH]2)c2cccnc12 [NCGC00184885-01] | -31 |

Same assay, conditions: qHTS primary screen hits, Table S2; negative sign = inhibitory curve

| Compound | Curve Class |
| --- | --- |
| NC(=O)c1ccnc2c(O)cccc12.O=C(O)C(F)(F)F [NCGC00183783-01] | -1.2 |

Same assay, conditions: qHTS primary screen hits, Table S2; negative sign = inhibitory curve; several classes where COUNT > 1

| Compound | Curve Class |
| --- | --- |
| O=C(O)C(F)(F)F.Oc1cccc2c(-c3nnn[nH]3)ccnc12 [NCGC00183786-01] | -1.2 |
| CN1CCC(N(Cc2cccs2)c2ccccc2)CC1 [NCGC00183847-01] | -2.4 |
| Cc1ccc2nc3sc(C(=O)NCc4ccco4)cc3cc2c1.O=C(O)C(F)(F)F [NCGC00183968-01] | -1.4 |
| Oc1ccc(-c2nnn[nH]2)c2cccnc12 [NCGC00184885-01] | -1.2 |

Same assay, conditions: qHTS primary screen hits, Table S2; read-out: IC50

| Compound | IC50 [µM] |
| --- | --- |
| NC(=O)c1ccnc2c(O)cccc12.O=C(O)C(F)(F)F [NCGC00183783-01] | 20 |
| O=C(O)C(F)(F)F.Oc1cccc2c(-c3nnn[nH]3)ccnc12 [NCGC00183786-01] | 3.5 |
| CN1CCC(N(Cc2cccs2)c2ccccc2)CC1 [NCGC00183847-01] | 39.8 |
| Cc1ccc2nc3sc(C(=O)NCc4ccco4)cc3cc2c1.O=C(O)C(F)(F)F [NCGC00183968-01] | 7.1 |
| Oc1ccc(-c2nnn[nH]2)c2cccnc12 [NCGC00184885-01] | 14.1 |

Each compound was assayed against T2, GST-CIB1 : F-scrambled peptide (Homo sapiens, UniProt Q99828) (assay: FP scrambled-peptide counter screen, 1536-well format). Conditions: counterscreen.
T2 construct: made in house; host or cells: BL-21 plus RIL cells (E. coli)
T2 sequence (Q99828 1-191): T1 sequence (Q99828 1-191)
Type: binding

| Compound | Efficacy (%) (counterscreen) | COUNTERSCREEN Efficacy (%) |
| --- | --- | --- |
| NC(=O)c1ccnc2c(O)cccc12.O=C(O)C(F)(F)F [NCGC00183783-01] | -17 |  |
| O=C(O)C(F)(F)F.Oc1cccc2c(-c3nnn[nH]3)ccnc12 [NCGC00183786-01] | -23 |  |
| CN1CCN(c2ccc(-c3cc(O)c4ncccc4c3)cc2)CC1.O=C(O)C(F)(F)F [NCGC00183803-01] |  | -12 |
| CN1CCC(N(Cc2cccs2)c2ccccc2)CC1 [NCGC00183847-01] |  | -12 |
| Cc1ccc2nc3sc(C(=O)NCc4ccco4)cc3cc2c1.O=C(O)C(F)(F)F [NCGC00183968-01] | -27 |  |
| Oc1ccc(-c2nnn[nH]2)c2cccnc12 [NCGC00184885-01] | -19 |  |

Same assay, conditions: counterscreen, YES/NO

| Compound | Confirm? (counterscreen) |
| --- | --- |
| NC(=O)c1ccnc2c(O)cccc12.O=C(O)C(F)(F)F [NCGC00183783-01] | YES |
| O=C(O)C(F)(F)F.Oc1cccc2c(-c3nnn[nH]3)ccnc12 [NCGC00183786-01] | YES |
| Cc1ccc2nc3sc(C(=O)NCc4ccco4)cc3cc2c1.O=C(O)C(F)(F)F [NCGC00183968-01] | YES |

Same assay, conditions: counterscreen, qHTS curve class

| Compound | COUNTERSCREEN Curve Class |
| --- | --- |
| CN1CCN(c2ccc(-c3cc(O)c4ncccc4c3)cc2)CC1.O=C(O)C(F)(F)F [NCGC00183803-01] | 4 |
| CN1CCC(N(Cc2cccs2)c2ccccc2)CC1 [NCGC00183847-01] | 4 |

Same assay, conditions: counterscreen, qHTS curve class; negative sign = inhibitory curve

| Compound | Curve Class (counterscreen) |
| --- | --- |
| NC(=O)c1ccnc2c(O)cccc12.O=C(O)C(F)(F)F [NCGC00183783-01] | 4 |
| O=C(O)C(F)(F)F.Oc1cccc2c(-c3nnn[nH]3)ccnc12 [NCGC00183786-01] | 4 |
| Cc1ccc2nc3sc(C(=O)NCc4ccco4)cc3cc2c1.O=C(O)C(F)(F)F [NCGC00183968-01] | 4 |
| Oc1ccc(-c2nnn[nH]2)c2cccnc12 [NCGC00184885-01] | -1.4 |

Same assay, conditions: counterscreen; read-out: IC50 [μM] (counterscreen)

| IC50 [µM] | Compound |
| --- | --- |
| 35.5 | Oc1ccc(-c2nnn[nH]2)c2cccnc12 [NCGC00184885-01] |
